{"source": "paper PMC11358443", "about": "“Polymodal K^+ channel modulation contributes to dual analgesic and anti-inflammatory actions of traditional botanical medicines” (Communications Biology, 2024)", "key": {"[1]": {"molecular_target": "T1, Kv1.1 (Homo sapiens, UniProt Q09470)", "T1 sequence (Q09470 whole entry)": "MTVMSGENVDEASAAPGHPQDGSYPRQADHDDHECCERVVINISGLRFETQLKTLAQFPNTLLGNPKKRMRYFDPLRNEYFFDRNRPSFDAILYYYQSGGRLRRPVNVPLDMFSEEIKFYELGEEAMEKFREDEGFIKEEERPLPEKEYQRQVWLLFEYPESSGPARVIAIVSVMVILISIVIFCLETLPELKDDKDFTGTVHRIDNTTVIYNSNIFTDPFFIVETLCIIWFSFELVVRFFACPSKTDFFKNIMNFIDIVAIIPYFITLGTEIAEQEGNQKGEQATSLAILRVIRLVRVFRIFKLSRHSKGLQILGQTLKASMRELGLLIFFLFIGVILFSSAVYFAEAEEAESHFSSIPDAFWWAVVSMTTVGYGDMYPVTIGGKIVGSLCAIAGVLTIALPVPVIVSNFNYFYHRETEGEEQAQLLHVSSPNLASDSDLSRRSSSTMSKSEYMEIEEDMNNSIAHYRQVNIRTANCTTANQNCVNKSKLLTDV", "assay": "TEVC electrophysiology, Xenopus oocytes expressing Kv1.1", "format": "cell-based", "settings": "100 µM; for Slope / V0.5 Normalized tail current / V0.5 non-normalized tail current: paired control in same table", "description": "(§1) We generated human potassium channel cRNA transcripts with the mMessage mMachine kit (Thermo Fisher Scientific, Waltham, MA, USA) according to manufacturer’s instructions, after vector linearization, from cDNA sub-cloned into expression vectors (pTLNx, pXOOM and pMAX). We injected Xenopus laevis oocytes (Xenoocyte, Dexter, MI, USA) with the channel cRNAs (0.5–10 ng) and incubated the oocytes at 16 °C for 1–4 days prior to electrophysiological recording.\n(§2) We performed TEVC at 20–23 °C with an OC-725C amplifier (Warner Instruments, Hamden, CT, USA) and pClamp10 software. Chemicals for recording and oocyte storage solutions were from Sigma-Aldrich (St. Louis, MO). Bath solution contained (in mM): 96 NaCl, 4 KCl, 1 MgCl2, 1 CaCl2, 10 HEPES (pH 7.6). Pipettes were 1–2 MΩ resistance when filled with 3 M KCl. We recorded currents in response to voltage pulses between −120 mV or −80 mV and +40 mV at 10 mV intervals from a holding potential of −80 mV, to yield current–voltage relationships and examine activation kinetics. We recorded and analyzed data using Clampfit (Molecular Devices, Sunnyvale, CA, USA) and Graphpad Prism software (GraphPad, San Diego, CA, USA), stating values as mean ± SEM. We calculated the voltage dependence of activation (V0.5) by measuring tail currents at a voltage pulse of −30 mV (Kv7) or −50 mV (Kv1), then fitted the tail current/voltage relationship with a single Boltzmann function:1 g=(A1−A2)/{1+exp[V1/2−V/Vs]}y+A2 where g is the normalized tail conductance, A1 is the initial value at −∞, A2 is the final value at +∞, V1/2 is the half-maximal voltage of activation and Vs the slope factor. We fitted activation and deactivation kinetics with single exponential functions."}, "[2]": {"tested_on": "TREK-1", "settings": "read-out: TREK-1 activation EC50; cited from earlier work"}, "[3]": {"molecular_target": "T1, Kv1.1", "parameters": "method as in PMID 33093824", "settings": "cited from earlier work"}, "[4]": {"molecular_target": "T2, Kv7.5 (Homo sapiens, UniProt Q9NR82)", "T2 sequence (Q9NR82 whole entry)": "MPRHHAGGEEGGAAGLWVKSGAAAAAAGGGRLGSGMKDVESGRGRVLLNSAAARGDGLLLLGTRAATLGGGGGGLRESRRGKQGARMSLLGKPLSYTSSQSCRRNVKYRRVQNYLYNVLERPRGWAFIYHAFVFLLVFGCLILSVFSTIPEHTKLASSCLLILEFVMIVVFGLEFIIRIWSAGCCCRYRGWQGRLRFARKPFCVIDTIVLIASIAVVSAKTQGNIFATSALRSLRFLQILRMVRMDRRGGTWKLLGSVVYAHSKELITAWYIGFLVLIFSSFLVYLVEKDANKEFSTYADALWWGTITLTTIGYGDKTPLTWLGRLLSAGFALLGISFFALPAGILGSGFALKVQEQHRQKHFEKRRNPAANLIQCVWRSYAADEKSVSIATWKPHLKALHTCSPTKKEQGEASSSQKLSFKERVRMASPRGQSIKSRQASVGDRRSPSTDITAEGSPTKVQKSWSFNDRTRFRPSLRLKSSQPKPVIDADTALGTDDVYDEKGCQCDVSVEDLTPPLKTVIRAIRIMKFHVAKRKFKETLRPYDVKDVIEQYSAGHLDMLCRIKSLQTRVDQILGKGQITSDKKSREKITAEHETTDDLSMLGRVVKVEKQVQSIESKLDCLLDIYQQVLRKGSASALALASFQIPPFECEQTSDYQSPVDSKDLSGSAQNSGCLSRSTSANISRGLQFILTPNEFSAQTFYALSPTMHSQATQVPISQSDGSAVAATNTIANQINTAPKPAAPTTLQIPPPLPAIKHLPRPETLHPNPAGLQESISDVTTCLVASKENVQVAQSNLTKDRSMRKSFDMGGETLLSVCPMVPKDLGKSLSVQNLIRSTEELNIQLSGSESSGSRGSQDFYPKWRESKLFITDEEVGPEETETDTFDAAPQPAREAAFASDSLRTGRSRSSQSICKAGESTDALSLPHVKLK", "parameters": "method as in PMID 35997997", "settings": "cited from earlier work"}, "[5]": {"molecular_target": "T2, Kv7.5", "assay": "TEVC electrophysiology, Xenopus oocytes expressing Kv7.5", "format": "cell-based", "settings": "100 µM", "description": "as §1, §2"}, "[6]": {"tested_on": "C57BL/6 mice", "parameters": "method as in Abbott et al., 2021 Front. Physiol. 12:777057", "settings": "5 mg/kg morphine; ref Abbott et al., 2021 Front. Physiol. 12:777057; cited from earlier work"}}, "note": "pEC50: −log10 of the molar value."}
{"smiles": "Oc1cc(O)c2c(c1)OC(c1ccc(O)c(O)c1)C(O)C2", "note": "(single isomer, unassigned; (+)) [catechin hydrate, (+)-Catechin hydrate]", "values": [{"measurement": "Slope", "setting": "[1]", "result": "6.10 ± 0.15", "unit": "mV"}, {"measurement": "V0.5 Normalized tail current", "setting": "[1]", "result": "-37.70 ± 0.45", "unit": "mV"}, {"measurement": "V0.5 non-normalized tail current", "setting": "[1]", "result": "-39.60 ± 0.63", "unit": "mV"}]}
{"smiles": "c1ccc(-c2nnn[nH]2)c(Nc2cccc3c2CCCC3)c1", "note": "[BL-1249, (5,6,7,8-tetrahydro-naphthalen-1-yl)-[2-(1H-tetrazol-5-yl)-phenyl]-amine]", "values": [{"measurement": "pEC50", "setting": "[2]", "result": 5.82}]}
{"smiles": "CS(=O)(=O)Nc1ccc(C(=O)NCc2ccc(Cl)cc2Cl)cc1", "note": "[ML335]", "values": [{"measurement": "pEC50", "setting": "[2]", "result": 4.85}]}
{"smiles": "Cc1cc(Cl)ccc1OCCNC(=O)c1cccs1", "note": "[ML402]", "values": [{"measurement": "pEC50", "setting": "[2]", "result": 4.85}]}
{"smiles": "O=C(O)c1cc(O)c(O)c(O)c1", "note": "[gallic acid]", "values": [{"measurement": "effect on voltage dependence of Kv1.1", "setting": "[3]", "result": "negative-shift"}, {"measurement": "activity on Kv7.5 compared with tannic acid", "setting": "[4]", "result": "active but less efficacious"}]}
{"smiles": "O=C(OC[C@H]1OC(O)[C@@](O)(COC(=O)c2cc(O)c(O)c(O)c2)[C@@H]1O)c1cc(O)c(O)c(O)c1", "note": "(stereo partly drawn) [hamamelitannin]", "values": [{"measurement": "activity on Kv7.5 expressed in oocytes", "setting": "[5]", "result": "inactive"}, {"measurement": "Slope", "setting": "[5]; control 7.66 ± 0.33", "result": "7.57 ± 0.17", "unit": "mV"}, {"measurement": "V0.5 Normalized tail current", "setting": "[5]; control -48.15 ± 1.14", "result": "-47.96 ± 0.99", "unit": "mV"}, {"measurement": "V0.5 non-normalized tail current", "setting": "[5]; control -50.27 ± 1.37", "result": "-49.87 ± 1.44", "unit": "mV"}, {"measurement": "effect on EM of oocytes expressing Kv1.1", "setting": "[1]", "result": "hyperpolarized the EM"}, {"measurement": "effect on Kv1.1", "setting": "[1]", "result": "negative-shifted the voltage dependence of Kv1.1 activation"}, {"measurement": "Slope", "setting": "[1]", "result": "6.51 ± 0.73", "unit": "mV"}, {"measurement": "V0.5 Normalized tail current", "setting": "[1]", "result": "-35.11 ± 1.66", "unit": "mV"}, {"measurement": "V0.5 non-normalized tail current", "setting": "[1]", "result": "-36.25 ± 1.77", "unit": "mV"}]}
{"smiles": "CN1CC[C@]23c4c5ccc(O)c4O[C@H]2[C@@H](O)C=C[C@H]3[C@H]1C5", "note": "[morphine]", "values": [{"measurement": "attenuation of early phase paw-licking", "setting": "[6]", "result": 40, "unit": "%"}]}
